Experiment [1] relates to IL-2 secretion of Jurkat cells (PMA/Ionomycin inducing). Nature of the experiment: ELISA method to detect IL-2 secretion induced by PMA/Ionomycin. Type of experiment: cell-based. The note with it: Homo sapiens, 20 h. As for the experimental part:
12.5*10^3 Jurkat cells were seeded on a 96-well plate and incubated with various concentrations of compound solution for 30 min. Then, 500×PMA/Ionomycin stimulating factor was diluted with culture medium and added to the cell plate. […] The final concentrations of the compounds were 10000, 3333.3, 1111.1, 370.4, 123.5, 41.2, 13.7, 4.6, 1.5, 0 nM (The final concentration of DMSO is 0.5%). After incubation for 20 h, the supernatant was collected via centrifugation. The final IL-2 concentration was detected by ELISA method (IL-2 Duoset, R&D Systems, DY202). The signal value of each sample at a wavelength of 450 nm was collected by EnVision multifunctional microplate reader and converted to the IL-2 concentration via the ELISACalc.exe software. The IL-2 secretion inhibitory activity IC50 was fitted by GraphPad Prism software. The cell viability was tested simultaneously using the Cell-Titer Glo kit.
The compounds of the present invention show strong inhibitory effect on IL-2 secretion of Jurkat cells (PMA/Ionomycin inducing).

In another experiment the target is T1, MALT1 (Homo sapiens, UniProt Q9UDY8).
T1 sequence (Q9UDY8 1-824): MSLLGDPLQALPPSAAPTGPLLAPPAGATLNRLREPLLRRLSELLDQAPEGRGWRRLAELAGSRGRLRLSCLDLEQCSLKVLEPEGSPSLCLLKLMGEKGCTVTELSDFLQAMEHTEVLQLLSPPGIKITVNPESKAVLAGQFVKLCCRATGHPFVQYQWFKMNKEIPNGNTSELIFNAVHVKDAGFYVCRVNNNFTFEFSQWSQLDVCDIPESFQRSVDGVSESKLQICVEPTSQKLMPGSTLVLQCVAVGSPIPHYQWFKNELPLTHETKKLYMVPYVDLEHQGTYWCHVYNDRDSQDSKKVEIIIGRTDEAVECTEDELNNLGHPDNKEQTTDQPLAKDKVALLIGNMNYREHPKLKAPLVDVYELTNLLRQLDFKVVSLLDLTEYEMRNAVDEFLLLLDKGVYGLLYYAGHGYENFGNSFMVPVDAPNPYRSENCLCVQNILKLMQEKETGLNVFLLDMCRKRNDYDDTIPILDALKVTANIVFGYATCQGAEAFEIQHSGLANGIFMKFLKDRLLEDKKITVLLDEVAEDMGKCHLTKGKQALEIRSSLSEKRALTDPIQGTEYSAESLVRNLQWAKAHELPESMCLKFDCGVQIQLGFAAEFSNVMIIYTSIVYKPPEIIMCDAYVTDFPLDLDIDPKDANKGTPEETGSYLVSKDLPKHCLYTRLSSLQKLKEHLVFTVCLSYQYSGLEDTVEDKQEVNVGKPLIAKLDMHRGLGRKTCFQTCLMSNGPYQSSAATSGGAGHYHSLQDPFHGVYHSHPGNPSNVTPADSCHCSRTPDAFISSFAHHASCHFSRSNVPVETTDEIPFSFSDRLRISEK
Description: MALT1 protease inhibition assay (AMC-labeled peptide, fluorescence 360/460). Type of experiment: biochemical. The note with it: substrate Ac-LRSR-AMC, 15 min preincubation, 90 min at 25° C. In short, it runs like this:
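Fluorogenic AMC-peptide cleavage read after 90 min at 25 °C, following a 15 min enzyme–compound preincubation at 25 °C in citrate protease buffer plus DTT. Compounds run as ten 3-fold dilutions in duplicate; percent inhibition relative to enzyme-only and enzyme-free controls, fitted to IC50.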

pIC50: −log10 of the molar value.

Consider `Cc1cc(-c2ccc(F)cc2N)c(F)cc1C(=O)Nc1cnc(-n2nccn2)c(Cl)c1` [Example A113], for which the pIC50 (in general, the IC50 on a negative log10 scale, so that one unit is a factor of ten) in experiment [1] is 7.46; against MALT1, ≥ 8.00.

Consider `Cc1cc(-c2ccc(F)cc2Br)c(F)cc1C(=O)Nc1cnc(-n2nccn2)c(Cl)c1` [Example A114], for which the values for the pIC50 (in experiment [1]; at MALT1) were 7.47 and ≥ 8.00, respectively.

`Cc1cc(-c2ccc(F)cc2Cl)c(F)cc1C(=O)Nc1cnc(-n2nccn2)c(Cl)c1` [Example A115, 2′-chloro-N-(5-chloro-6-(2H-1,2,3-triazol-2-yl)pyridin-3-yl)-2,4′-difluoro-5-methyl-[1,1′-biphenyl]-4-carboxamide]: the results for the pIC50 (in experiment [1]; at MALT1) were 7.40 and ≥ 8.00, respectively.

Consider `Cc1cc(-c2ccc(F)cc2F)c(F)cc1C(=O)Nc1cnc(-n2nccn2)c(Cl)c1` [Example A116, N-(5-chloro-6-(2H-1,2,3-triazol-2-yl)pyridin-3-yl)-2,2′,4′-trifluoro-5-methyl-[1,1′-biphenyl]-4-carboxamide], for which the figures for the pIC50 (in experiment [1]; against MALT1) were 7.27 and ≥ 8.00, respectively.

As to `Nc1ccccc1-c1cc(F)c(C(=O)Nc2cnc(-n3nccn3)c(Cl)c2)cc1Cl` [Example A119, 2′-amino-2-chloro-N-(5-chloro-6-(2H-1,2,3-triazol-2-yl)pyridin-3-yl)-5-fluoro-[1,1′-biphenyl]-4-carboxamide], the negative-log IC50 (pIC50) was 6.33 in experiment [1] and ≥ 8.00 at MALT1.

For `Nc1cc(F)ccc1-c1cc(F)c(C(=O)Nc2cnc(-n3nccn3)c(Cl)c2)cc1Cl` [Example A120, 2′-amino-2-chloro-N-(5-chloro-6-(2H-1,2,3-triazol-2-yl)pyridin-3-yl)-4′,5-difluoro-[1,1′-biphenyl]-4-carboxamide], the pIC50 in experiment [1] was 7.24; against MALT1, ≥ 8.00.

As for `Nc1cc(F)ccc1-c1cc(Cl)c(C(=O)Nc2cnc(-n3nccn3)c(Cl)c2)cc1F` [Example A121, 2′-amino-5-chloro-N-(5-chloro-6-(2H-1,2,3-triazol-2-yl)pyridin-3-yl)-2,4′-difluoro-[1,1′-biphenyl]-4-carboxamide], the pIC50 in experiment [1] is 7.37; against MALT1, ≥ 8.00.

As to `Nc1cc(F)ccc1-c1cc(Cl)c(C(=O)Nc2cnc(-n3nccn3)c(C(F)(F)F)c2)cc1F` [Example A122, N-(6-(2H-1,2,3-triazol-2-yl)-5-(trifluoromethyl)pyridin-3-yl)-2′-amino-5-chloro-2,4′-difluoro-[1,1′-biphenyl]-4-carboxamide], the pIC50 in experiment [1] was 6.92; against MALT1, ≥ 8.00.

For `Nc1cc(F)ccc1-c1cc(F)c(C(=O)Nc2cnc(-n3nccn3)c(C(F)(F)F)c2)cc1Cl` [Example A123, N-(6-(2H-1,2,3-triazol-2-yl)-5-(trifluoromethyl)pyridin-3-yl)-2′-amino-2-chloro-4′,5-difluoro-[1,1′-biphenyl]-4-carboxamide], the pIC50 in experiment [1] was 7.24; against MALT1, ≥ 8.00.

For the compound `Nc1cnccc1-c1cc(F)c(C(=O)Nc2cnc(-n3nccn3)c(Cl)c2)cc1Cl` [Example A124], the pIC50 in experiment [1] is 6.60; against MALT1 it was ≥ 8.00.

With `Cc1cc(-c2ccncc2Cl)c(F)cc1C(=O)Nc1cnc(-n2nccn2)c(Cl)c1` [Example A126], the pIC50 in experiment [1] was 6.87; at MALT1, ≥ 8.00.

With `CNc1cc(F)ccc1-c1cc(F)c(C(=O)Nc2cnc(-n3nccn3)c(Cl)c2)cc1Cl` [Example A127, 2-chloro-N-(5-chloro-6-(2H-1,2,3-triazol-2-yl)pyridin-3-yl)-4′,5-difluoro-2′-(methylamino)-[1,1′-biphenyl]-4-carboxamide], the negative-log IC50 (pIC50) was 6.35 in experiment [1] and ≥ 8.00 against MALT1.

As for `O=C(Nc1cnc(-n2nccn2)c(Cl)c1)c1cc(F)c(-c2ccc(F)cc2CO)cc1Cl` [Example A281], the pIC50 was 7.11 in experiment [1] and ≥ 8.00 against MALT1.

Turning to `C#Cc1cncc(N)c1-c1cc(Cl)c(C(=O)Nc2cnc(-n3nccn3)c(C(F)(F)F)c2)cc1F` [Example A410, N-(6-(2H-1,2,3-triazol-2-yl)-5-(trifluoromethyl)pyridin-3-yl)-4-(3-amino-5-ethynylpyridin-4-yl)-2-chloro-5-fluorobenzamide], the results for the pIC50 (in experiment [1]; on MALT1) were 7.18 and ≥ 8.00, respectively.

Turning to `C#Cc1cncc(N)c1-c1cc(Cl)c(C(=O)Nc2cnc(-n3nccn3)c(Cl)c2)cc1F` [Example A411, 4-(3-amino-5-ethynylpyridin-4-yl)-2-chloro-N-(5-chloro-5-(2H-1,2,3-triazol-2-yl)pyridin-3-yl)-5-fluorobenzamide], the negative logarithm of the IC50 (pIC50) in experiment [1] was 7.77; at MALT1 it was ≥ 8.00.

In the case of `C#Cc1cc(F)cc(N)c1-c1cc(Cl)c(C(=O)Nc2cnc(-n3nccn3)c(Cl)c2)cc1F` [Example A412], the results for the pIC50 (in experiment [1]; at MALT1) were 7.49 and ≥ 8.00, respectively.

Turning to `C#Cc1cnccc1-c1cc(Cl)c(C(=O)Nc2cnc(C(=O)NC)c(Cl)c2)cc1F` [Example A426, 3-chloro-5-(2-chloro-4-(3-ethynylpyridin-4-yl)-5-fluorobenzamido)-N-methylpicolinamide], the pIC50 in experiment [1] is 7.11; against MALT1, ≥ 8.00.

On to `C#Cc1cnccc1-c1cc(Cl)c(C(=O)Nc2cnc(C(=O)NCC#N)c(Cl)c2)cc1F` [Example A427, 3-chloro-5-(2-chloro-4-(3-ethynylpyridin-4-yl)-5-fluorobenzamido)-N-(cyanomethyl)picolinamide], for which the negative logarithm of the IC50 (pIC50) in experiment [1] was 7.11; on MALT1, ≥ 8.00.

For `C#Cc1cnccc1-c1cc(Cl)c(C(=O)Nc2cnc(C(=O)NCC)c(Cl)c2)cc1F` [Example A428, 3-chloro-5-(2-chloro-4-(3-ethynylpyridin-4-yl)-5-fluorobenzamido)-N-ethylpicolinamide], the negative-log IC50 (pIC50) in experiment [1] is 6.79; at MALT1 it was ≥ 8.00.

Consider `C#Cc1cncc(N)c1-c1cc(Cl)c(C(=O)Nc2cnc(C(=O)NCC(F)(F)F)c(Cl)c2)cc1F` [Example A470, 5-(4-(3-amino-5-ethynylpyridin-4-yl)-2-chloro-5-fluorobenzamido)-3-chloro-N-(2,2,2-trifluoroethyl)picolinamide], for which the pIC50 in experiment [1] is 6.95; on MALT1, ≥ 8.00.

Regarding `Nc1cncc(C2CC2)c1-c1cc(Cl)c(C(=O)Nc2cnc(-n3nccn3)c(Cl)c2)cc1F` [Example A506, 4-(3-amino-5-cyclopropylpyridin-4-yl)-2-chloro-N-(5-chloro-6-(2H-1,2,3-triazol-2-yl)pyridin-3-yl)-5-fluorobenzamide], the pIC50 in experiment [1] is 7.12; against MALT1 it was ≥ 8.00.

Values taken from patent US20240336594A1, “SIX-MEMBERED ARYL OR HETEROARYL AMIDES, AND COMPOSITION AND USE THEREOF” (BETTA PHARMACEUTICALS CO., LTD, priority 2021, published 2024).
